Assay results taken from patent US20130252930A1 (BIOMARIN PHARMACEUTICAL INC., priority 2010, published 2013).
Read-outs that look alike come from different tables or passages of the source.

Legend:
[1] = biological target: T1, CYP17 (human testicular microsome) (Homo sapiens, UniProt P05093); experiment: CYP17 enzymatic assay (IC50) (Biological Example 4); type: biochemical
T1 construct: using microsomal fraction from human testis (Celsis Cat #S00110) as the enzyme source; tissue Celsis S00110; host or cells: human testis microsomal fraction
T1 sequence (P05093 1-508): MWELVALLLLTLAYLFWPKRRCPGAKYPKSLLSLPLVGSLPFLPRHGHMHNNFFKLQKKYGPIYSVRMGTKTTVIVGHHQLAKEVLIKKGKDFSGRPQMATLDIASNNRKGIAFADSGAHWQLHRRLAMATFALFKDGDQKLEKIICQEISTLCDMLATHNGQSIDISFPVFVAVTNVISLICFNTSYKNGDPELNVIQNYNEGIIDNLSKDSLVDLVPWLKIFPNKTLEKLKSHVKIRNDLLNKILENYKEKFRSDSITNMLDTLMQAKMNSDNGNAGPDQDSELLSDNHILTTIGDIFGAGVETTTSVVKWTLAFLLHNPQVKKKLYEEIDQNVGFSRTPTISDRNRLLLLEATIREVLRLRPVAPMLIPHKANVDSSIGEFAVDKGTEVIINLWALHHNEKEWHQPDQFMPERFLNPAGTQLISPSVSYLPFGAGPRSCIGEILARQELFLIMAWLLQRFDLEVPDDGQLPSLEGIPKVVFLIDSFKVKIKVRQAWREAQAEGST

[2] = biological target: T1, CYP17 (human testicular microsome); experiment: CYP17 enzymatic assay (% inhibition at 10 nM), version 1 (Biological Example 5); type: biochemical
[3] = system: rat Cyp11B enzyme (rat adrenal mitochondria); experiment: CYP11B enzymatic assay (% inhibition at 100 nM) (Biological Example 9); type: biochemical; conditions: for Biological Example No. 9: CYP11B percent inhibition at 100 nM: 100 nM compound, cortisol by ELISA; for CYP11B enzymatic assay % inhibition at 100 nM (Biological Example No. 9): compound at 100 nM
Procedure, shortened: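 Sprague Dawley rat adrenal mitochondria were incubated with compound at 100 nM, 0.5 mM NADPH and 0.1 μM 11-deoxycortisol (pH 7.4 Tris buffer) for 60 min at 37 °C. Cortisol was measured by ELISA and corrected by subtracting the no-NADPH background. % inhibition is relative to the no-compound reaction.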

[4] = biological target: T2, Cyp21 enzyme (Human HEK 293-Cyp21 stable transfected cells) (Homo sapiens, UniProt P08686); experiment: CYP21-HEK293 enzymatic assay (% inhibition at 100 nM) (Biological Example 10); type: cell-based; conditions: HEK 293-Cyp21 cells
T2 construct: expressed in transfected cells
T2 sequence (P08686 1-495): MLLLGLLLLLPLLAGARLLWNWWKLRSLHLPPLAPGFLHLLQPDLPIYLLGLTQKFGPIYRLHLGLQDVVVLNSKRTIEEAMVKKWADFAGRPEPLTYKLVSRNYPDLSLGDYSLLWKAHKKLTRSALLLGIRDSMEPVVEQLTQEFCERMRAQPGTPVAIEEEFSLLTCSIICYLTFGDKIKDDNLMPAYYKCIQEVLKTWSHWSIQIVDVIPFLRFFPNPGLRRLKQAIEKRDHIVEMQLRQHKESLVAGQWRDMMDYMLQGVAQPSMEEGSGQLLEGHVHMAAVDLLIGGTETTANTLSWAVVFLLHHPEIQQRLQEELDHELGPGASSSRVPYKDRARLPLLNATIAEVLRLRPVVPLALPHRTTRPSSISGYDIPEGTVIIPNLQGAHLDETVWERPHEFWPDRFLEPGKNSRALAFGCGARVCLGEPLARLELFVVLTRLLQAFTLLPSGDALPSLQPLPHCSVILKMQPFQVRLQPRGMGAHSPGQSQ
Method: Proceeding using methods similar to those described in Biological Example 11, the percent inhibition at 100 nM was measured.
This assay was used to determine compound activity against Cyp21 enzyme. Human HEK 293-Cyp21 stable transfected cells (maintained in complete growth media DMEM+10% FBS, supplemented with 125 ug/mL Hygromycin) were seeded in a 96-well plate at 20,000 cells/well/100 uL in DMEM plus 10% FBS and allowed to attach overnight. The next day, 20 μL medium was carefully removed and 10 μL of 10× pre-made compounds in DMEM+10% FBS+10% methanol was transferred to the wells to final concentrations of 1000, 100, 10, 1, or 0.1 nM. Mock treatment was 1% methanol in growth media and the cells were left at 37° C., 5% CO2 for 5 hr. After the incubation, 10 μL of substrate progesterone (Sigma) was added to the wells to make a final concentration of 10 μM. The cells were incubated the cells at 37° C. for 20 hr. At the end of incubation, 90 μL of conditioned media was removed to measure DOC level by ELISA.
Preparation of the DOC ELISA: 100 μL of coating buffer (0.025M PBS pH 7.4) containing 200 ng/mL DOC-3-carboxymethyloxime-BSA (Steraloids. inc, Cat#3469-000) was added to each well of a 96-well plate and incubated overnight at 4° C. The next day, the plates were washed twice with 250 μl of wash solution (0.015M PBS pH 7.4 containing 0.05% Tween 20). After being washed, the wells were blocked with 250 μL blocking buffer (3% BSA in 0.025M PBS, pH 7.4) at 37° C. for 2 h. The plates were washed again 3 times as before, and then 90 μL of sample /standards (prepared in complete growth media) was added into the appropriate wells followed by 10 μL of antibody solution (1:450 rabbit anti-DOC in 0.6% BSA/PBS). The plates were incubated at room temperature for 2 h on a shaker. The contents of the wells were removed and the plate was washed 4 times. After the final wash, 100 μL of secondary antibody (1:12000 HRP-goat-anti-rabbit IgG conjugate 0.6% BSA/PBS) was added into each well. The plate was incubated at 30° C. for 45 min. The plate was washed again 4 times and 100 μL of TMB substrate solution was added to each well. The plate was incubated at room temperature for 10 min. 100 μL of stop solution was added to each well and the optical density was read at 450 nm.
The mean absorbance value for each sample was used to determine the corresponding concentration from the standard curve. Data was analyzed with “log(antagonist) vs response variable slope” under “non-linear regression analysis” using Prism5 software.

[5] = Rat liver microsome stability assay (Biological Example 8a); conditions: liver microsomes, pH 7.4
[6] = Human liver microsome stability assay (Biological Example 8b); conditions: liver microsomes, pH 7.4
[7] = biological target: T1, CYP17 (human testicular microsome); experiment: CYP17 enzymatic assay (% inhibition at 1 nM) (Biological Example 12); type: biochemical; conditions: compound at 1 nM, read-out: CYP17 enzymatic assay % inhibition at 1 nM (Biological Example No. 12)
CYP17 (H295R cells) = biological target: T3, CYP17 (H295R cells) (Homo sapiens, UniProt P05093); experiment: CYP17 cellular assay (IC50), testosterone in H295R cells (Biological Example 7); type: cell-based; conditions: H295R cells, testosterone; read-out: CYP17 cellular assay IC50 (Biological Example No. 7)
T3 construct: endogenous in cells; host or cells: H295R cells
T3 sequence (P05093 1-508): T1 sequence (P05093 1-508)
Procedure, shortened: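 Testosterone in the medium was quantified by ELISA after 24 h at 37 °C with test compound (final 100, 10, 1, 0.1 nM; serum-free DMEM/F-12, ITS+, 0.1% methanol). The H295R cells had been seeded and grown 24 h beforehand; vehicle wells served as control.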

[8] = human testicular microsome, DHEA by ELISA, read-out: Biological Example No. 4: CYP17 enzymatic assay IC50
[9] = 10 nM compound, DHEA by ELISA, read-out: Biological Example No. 5: CYP17 percent inhibition at 10 nM (version 1)
[10] = 100 nM compound, read-out: Biological Example No. 10: CYP21-HEK293 percent inhibition at 100 nM
[11] = human testicular microsome, read-out: CYP17 enzymatic assay IC50 (Biological Example No. 4)
[12] = compound at 100 nM, read-out: CYP21-HEK293 enzymatic assay % inhibition at 100 nM (Biological Example No. 10)

| inhibition at 0.1 µM [4, 12] | Compound | IC50 [1, 8] | inhibition at 0.01 µM [2, 9] | Biological Example No. 9: CYP11B percent inhibition at 100 nM [3] | inhibition at 0.1 µM [4, 10] | half-life at 1 μM [6] | CYP11B enzymatic assay % inhibition at 100 nM (Biological Example No. 9) [3] | also measured |
| --- | --- | --- | --- | --- | --- | --- | --- | --- |
| ≥ 30% | C[C@]12CC[C@H]3[C@@H](CC[C@H]4CC(=O)NCC[C@@]43C)C1=CC=C2n1ccnc1 [Compound 447, (5aS,5bS,7aS,10bR,12aS)-8-(1H-imidazol-1-yl)-5a,7a-dimethyl-3,4,5,5a,5b,6,7,7a,10b,11,12,12a-dodecahydrocyclopenta[5,6]naphtho[1,2-d]azepin-2(1H)-one] | – | – | – | – | 1 to 50 min | na (“na” means the compound was not active under the conditions tested) | IC50 [1, 11]: < 11 nM; inhibition at 0.01 µM ([2]; compound at 10 nM, read-out: CYP17 enzymatic assay % inhibition at 10 nM (Biological Example No. 5)): > 80% |
| < 30% | Cc1ccncc1C1=CC[C@H]2[C@@H]3CC[C@H]4CC(=O)NCC[C@]4(C)[C@H]3CC[C@]12C [Compound 462, (5aS,5bS,7aS,10aS,10bR,12aS)-5a,7a-dimethyl-8-(4-methylpyridin-3-yl)-3,4,5,5a,5b,6,7,7a,10,10a,10b,11,12,12a-tetradecahydrocyclopenta[5,6]naphtho[1,2-d]azepin-2(1H)-one] | – | – | – | – | – | T (T means the compound had a percent inhibition of less than 32% when tested at 100 nM) | IC50 (CYP17 (H295R cells)): < 15 nM; inhibition at 0.001 µM [7]: 10 to 50% |

The next lines start with the compound.

| Compound | inhibition at 0.1 µM [4, 12] | IC50 [1, 8] | inhibition at 0.01 µM [2, 9] | Biological Example No. 9: CYP11B percent inhibition at 100 nM [3] | inhibition at 0.1 µM [4, 10] | half-life at 1 μM [6] | CYP11B enzymatic assay % inhibition at 100 nM (Biological Example No. 9) [3] | also measured |
| --- | --- | --- | --- | --- | --- | --- | --- | --- |
| C[C@]12CC[C@H]3[C@@H](CCN4C(=O)CCCC[C@]34C)[C@@H]1CC=C2c1cccnc1 [Compound 38, (11aR,13aS)-11a,13a-dimethyl-1-(pyridin-3-yl)-3b,4,5,8,9,10,11,11a,11b,12,13,13a-dodecahydro-3H-azepino[2,1-a]cyclopenta[f]isoquinolin-7(3aH)-one] | – | < 11 nM | 50 to 80% | na (“na” means the compound was not active under the conditions tested) | < 30% | – | – | – |
| Cc1cncc(C2=CC[C@H]3[C@@H]4CC(O)C5CCCC[C@]5(C)[C@H]4CC[C@]23C)c1 (stereo partly drawn) [Compound 70, (10R,13S)-10,13-dimethyl-17-(5-methylpyridin-3-yl)-2,3,4,5,6,7,8,9,10,11,12,13,14,15-tetradecahydro-1H-cyclopenta[a]phenanthren-6-ol] | – | < 11 nM | – | – | – | – | – | half-life at 1 μM [5]: 1 to 10 min |
| C[C@]12CCCCC1C(=O)C[C@@H]1[C@@H]2CC[C@]2(C)C(n3ccnc3)=CC[C@@H]12 (stereo partly drawn) [Compound 88, (10R,13S)-17-(1H-imidazol-1-yl)-10,13-dimethyl-2,3,4,5,7,8,9,11,12,13,14,15-dodecahydro-1H-cyclopenta[a]phenanthren-6(10H)-one] | – | < 11 nM | > 80% | T (T means the compound had a percent inhibition of less than 32% when tested at 100 nM) | < 30% | – | – | – |
| CN1CC=C2CC[C@@H]3[C@H](CC[C@]4(C)C(n5ccnc5)=CC[C@@H]34)[C@@]2(C)CC1 [Compound 151] | – | – | 1 to 50% | T (T means the compound had a percent inhibition of less than 32% when tested at 100 nM) | < 30% | – | – | – |
| CN1CC[C@@]2(C)C(=CC1=O)CC[C@H]1C3=CC=C(c4cccnc4)[C@@]3(C)CC[C@@H]12 [Compound 158] | – | < 11 nM | > 80% | T (T means the compound had a percent inhibition of less than 32% when tested at 100 nM) | ≥ 30% | 1 to 50 min | – | – |
| C[C@]12CC[C@H]3[C@@H](CC[C@H]4CC(=O)CC[C@@]43C)C1=CC=C2c1cccnc1 [Compound 164, (5S,8R,9S,10S,13S)-10,13-dimethyl-17-(pyridin-3-yl)-4,5,6,7,8,9,10,11,12,13-decahydro-1H-cyclopenta[a]phenanthren-3(2H)-one] | – | < 11 nM | > 80% | U (U means the compound had a percent inhibition of greater than or equal to 32%) | ≥ 30% | 1 to 50 min | – | – |
| C[C@]12CC[C@H]3[C@@H](CC[C@H]4CC(=O)CC[C@@]43C)C1=CC=C2n1ccnc1 [Compound 171] | – | – | > 80% | T (T means the compound had a percent inhibition of less than 32% when tested at 100 nM) | < 30% | 1 to 50 min | – | IC50 [1]: < 11 nM |
| C[C@]12CCC(NC(=O)C3CC3)CC1=CCC1C2CC[C@]2(C)C(n3ccnc3)=CCC12 (stereo partly drawn) [Compound 238, N-((10R,13S)-17-(1H-imidazol-1-yl)-10,13-dimethyl-2,3,4,7,8,9,10,11,12,13,14,15-dodecahydro-1H-cyclopenta[a]phenanthren-3-yl)cyclopropanecarboxamide] | < 30% | – | – | – | – | 1 to 50 min | U (U means the compound had a percent inhibition of greater than or equal to 32%) | IC50 [1, 11]: < 11 nM; inhibition at 0.001 µM [7]: > 50% |
